Source: US10117874B2, “Combination of PI3K-inhibitors” (BAYER PHARMA AKTIENGESELLSCHAFT, priority 2013, dated 2018)

Key:
[1] = system: LNCaP prostate cancer cells; experiment: WST-1 based proliferation assay, LNCaP; assay type: cell-based, human
Method: (§1) The effects of PI3K inhibitor compound A′ and compound B in MCF-7 and 4T1 breast cancer cells and PC-3 and LNCaP prostate cancer cells were investigated in vitro as single agent and in combination. The effects were studied by measuring cell proliferation and apoptosis. Compound B and the reference inhibitor doxorubicin were added at day 0. The PI3K inhibitors were added at day −1 (24 hours before addition of Alpharadin) and at day 4. The following two concentrations of the inhibitors and two concentrations of radium 223 in 4 replicates were tested:
(§2) The effects on cell proliferation were studied using a WST-1 based proliferation assay and the effects on apoptosis were studied in parallel plates by measuring caspase 3/7 activity. The measurements were performed at 4 different time points, days 1, 2, 3 and 5. Caspase activity was normalized to the cell number obtained with the WST-1 assay in parallel plates.
(A) The results are shown as Absorbance (450 nm) measured in the WST-1 proliferation assay (MEAN).

[2] = system: PC-3 prostate cancer cells; experiment: WST-1 based proliferation assay, PC-3; assay type: cell-based, human; conditions: PC3 (AR-negative, PTEN loss); WST-1 absorbance 450 nm, days 1-5; compound A′ 50/500 nM, compound B 1600/800 Bq/ml
Method: as §1, §2
(§3) The results are shown as Absorbance (450 nm) measured in the WST-1 proliferation assay (MEAN).

[3] = system: 4T1 breast cancer cells; experiment: WST-1 based proliferation assay, 4T1; assay type: cell-based, mouse
Method: as §1, §2, §3

[4] = system: MCF-7 breast cancer cells; experiment: WST-1 based proliferation assay, MCF-7; assay type: cell-based, human; conditions: MCF-7 (ER+, PIK3CA mutation); WST-1 absorbance 450 nm, days 1-5; compound A′ 50/500 nM, compound B 1600/800 Bq/ml
Method: as §1, §2
(§4) (A) The results are shown as Absorbance (450 nm) measured in the WST-1 proliferation assay (MEAN). (B) The results are shown as Caspase 3/7/WST-1 values (MEAN). […] (B) The effects of PI3K inhibitor compound A′ and Radium 223 on MCF-7 cell caspase 3/7 activity at days 2. The results are shown as Caspase 3/7/WST-1 values (MEAN+SEM).

[5] = system: MCF-7 breast cancer cells; experiment: Apoptosis by caspase 3/7 activity, MCF-7; assay type: cell-based, human; conditions: day 2, caspase activity normalized to WST-1 cell number
Method: as §1, §2, §4

[6] = single doses up to 250 kBq per kg body weight; cited from earlier work
[7] = system: CRPC and bone metastases; conditions: Phase 2 studies; cited from earlier work
[8] = phase 1 and 2 studies; patients with bone metastases; cited from earlier work
[9] = system: CRPC (Castration Resistant Prostate Cancer) and bone metastases; conditions: cited from earlier work
[10] = LNCaP (AR-positive, PTEN loss), WST-1 absorbance 450 nm, days 1-5
[11] = ALSYMPCA trial, patients with CRPC and bone metastases
[12] = WST-1 absorbance 450 nm, days 1-5, compound A′ 100/1000 nM, compound B 1600/800 Bq/ml

Row | SMILES | inhibition of tumor cell proliferation [1, 10] | inhibition of tumor cell proliferation [2] | inhibition of tumor cell proliferation ([3]; lower (100 nM) dose) | inhibition of tumor cell proliferation [4] | apoptosis / tumor cell death induction (caspase 3/7 / WST-1) [5] | inhibition of tumor cell proliferation ([1]; LNCaP, high dose (1600 Bq/mL)) | cases of grade 3 neutropenia [6] | observed adverse reactions [6] | pain and disease-related biomarkers (bone ALP, PSA) [7] | safety profile [8] | median survival longer than placebo [9, 11] [months] | reduction in risk of death compared with placebo [9, 11] [%] | time to first skeletal-related event ([9]; ALSYMPCA trial, versus placebo) | median overall survival ([9]; Phase III clinical trials) | inhibition of tumor cell proliferation [3, 12] | inhibition of tumor cell proliferation ([3]; higher dose)
1 | COc1c(OCCCN2CCOCC2)ccc2c1N=C(NC(=O)c1cnc(N)nc1)N1CCN=C21.Cl.Cl [compound A′, 2-amino-N-[7-methoxy-8-(3-morpholin-4-ylpropoxy)-2,3-dihydroimidazo[1,2-c]quinazolin-5-yl]pyrimidine-5-carboxamide dihydrochloride] | strong anti-proliferative effects | better anti-proliferactive activity | only moderate inhibition of tumor cell proliferation | potent anti-proliferative activity | only at high dose can induce apoptosis |  |  |  |  |  |  |  |  |  |  | 
2 | [Cl][223Ra][Cl] [compound B, radium-223 dichloride] |  | moderate inhibition of tumor cell proliferation |  | only slight inhibition of tumor cell proliferation | could not induce tumor cell death | effective | ⅕ | diarrhea and reversible myelosuppression | reduces pain, improves disease-related biomarkers | favorable safety profile, with minimal myelotoxicity | 2.8 | 30.5 | significantly prolonged | Significant increase in median overall survival | only moderate inhibition of tumor cell proliferation | strong anti-proliferative effects
3 | COc1cccc2c1C(=O)c1c(O)c3c(c(O)c1C2=O)C[C@@](O)(C(=O)CO)C[C@@H]3O[C@H]1C[C@H](N)[C@H](O)[C@H](C)O1 [doxorubicin] | inhibited proliferation | inhibited proliferation |  | inhibited proliferation |  |  |  |  |  |  |  |  |  |  | inhibited proliferation | 
